Measurements published in patent US20260328779A1, “METHODS AND COMPOSITIONS FOR THE DIAGNOSIS AND TREATMENT OF IGA NEPHROPATHY” (Beth Israel Deaconess Medical Center, Inc., priority 2022, published 2026).

How the values were obtained:
anti-Tn antibodies = experiment: Inhibition of anti-Tn antibody binding to Tn(+)matrix beads (fluorescent anti-IgM imaging); settings: 20 mM preincubation, 30 min on ice; anti-human IgM detection
Excerpt: To investigate whether the interaction of the anti-Tn antibodies to the Tn(+)matrix is Tn antigen-dependent, fluorescent-tagged secondary antibodies were used to image the antibodies bound to the Tn(+)matrix. Strong staining for bound IgM (FIG. 3C, upper panel, green fluorescent) was observed, but no significant staining for either IgG or IgA (FIG. 3C, middle and bottom panels). The IgG and IgA1 levels in the bound material are thus either relatively low or these antigens could be cryptic within complexes and inaccessible in the context of the beads. […]
~50 ml of human sera was mixed with 1 ml of Tn(+)matrix beads (50% slurry in PBS) at 4° C. […] The concentration of eluted protein was determined by BCA assay (Cat #23225, Thermo Fisher Scientific). Each fraction (Input, Flow through (FT), Washes) was proportionally loaded, except elution 10 ml, and analyzed on SDS-PAGE, and stained with Coomassie, or transferred to nitrocellulose membrane (Cat #1704158, Bio-Rad) using Trans-Blot Turbo Transfer System (Bio-Rad). […] After washing 3× with TBST for 10 min, the signals were analyzed on an Amersham™ Imager 600 (GE Healthcare Life Sciences) using SuperSignal™ West Pico chemiluminescent substrate (Cat #34578, Thermo Scientific). […] The beads were washed twice with chilled 1 ml of PBS, and analyzed using a microscope (AMG EVOS FL digital inverted microscope, Fisher Scientific, ×100 magnification). […]

anti-Tn CICs = experiment: Dissociation of anti-Tn CICs by glycomimetic treatment (BN-APAGE-WB); assay type: biochemical, human; settings: 100 mM, 2 h at 4° C.; anti-Tn CICs from IgAN patients
Procedure: Furthermore, it was tested whether the anti-Tn IgM immune complexes can be dissociated from Tn(+)IgA1 using compounds that mimic the Tn antigen-glycomimetics. For this purpose, the anti-Tn CICs were affinity-purified from the sera of IgAN patients; the anti-Tn CICs were treated with mock, α-methylGalNAc (glycomimetic compound, αGalNAc), or α-methylGlcNAc (control compound, αGlcNAc), followed by BN-APAGE-WB and probing for IgM, and IgA. […] An IgA1 signal was unable to be detected in mock and α-methylGlcNAc-treated samples (FIG. 5F, lane 1 and 3, bottom), indicating the IgA1 epitopes may be buried within the CICs and thus not available in this native page set-up for WB detection.
Samples (~0.1 mg) or for plain serum (1:200 dilution in PBS, […]) run on BN-APAGE were transferred onto activated PVDF membrane (Cat #IPVH00010, EMD Millipore, wet-transfer system, 40 V for 2 h). The membranes were quickly destained with 100% methanol, washed with TBST, and blocked with 5% (w/vol) non-fat milk in TBST for 1 h at RT. […]
For glycomimetic treatment, purified anti-Tn CICs (~0.1 mg) was pretreated with α-methylGalNAc (100 mM), α-methylGlcNAc (100 mM), or mock in PBS for 2 h at 4° C. on a rotator (10 rpm) and the samples were analyzed by BN-APAGE-WB and probed for IgM and IgA.

CO[C@H]1O[C@H](CO)[C@H](O)[C@H](O)[C@H]1NC(C)=O [α-methylGalNAc]
inhibition of binding of antibodies to the Tn(+)matrix (anti-Tn antibodies): completely inhibited | dissociation of Tn(+)IgA1 from anti-Tn CICs (anti-Tn CICs): caused dissociation of the Tn(+)IgA1 from anti-Tn IgM immune complexes
